Reference: PMC8678048 (Frontiers in Microbiology, 2021)
Positions of bridges follow the written chain, without caps; N, C: chain ends. Residues, ends and D or L forms follow the SMILES beside them.

Biological target: ASFV pS273R protease (African swine fever virus, UniProt Q00946)
Type: biochemical

Sequence of ASFV pS273R protease (Q00946 whole entry, looked up): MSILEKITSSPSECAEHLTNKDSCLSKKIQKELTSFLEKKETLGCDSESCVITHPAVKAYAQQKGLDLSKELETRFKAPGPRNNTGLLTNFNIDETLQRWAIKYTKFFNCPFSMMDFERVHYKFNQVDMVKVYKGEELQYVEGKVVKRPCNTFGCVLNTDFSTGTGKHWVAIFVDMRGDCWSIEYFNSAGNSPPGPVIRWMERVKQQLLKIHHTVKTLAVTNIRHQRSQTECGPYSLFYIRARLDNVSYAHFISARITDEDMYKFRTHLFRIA

CC[C@H](C)[C@@H]1NC(=O)CNC(=O)[C@H](CO)NC(=O)[C@@H]2CSSC[C@@H](C(=O)N[C@@H](Cc3ccc(O)cc3)C(=O)O)NC(=O)[C@H](CCCCN)NC(=O)[C@@H]3CSSC[C@H](NC(=O)[C@H](CCC(N)=O)NC(=O)[C@H](Cc4ccc(O)cc4)NC(=O)[C@H](CCC(N)=O)NC(=O)[C@H](CC(N)=O)NC(=O)[C@H](Cc4ccccc4)NC(=O)[C@@H]4CCCN4C(=O)[C@@H](NC(=O)CNC(=O)[C@H](Cc4ccc(O)cc4)NC(=O)CN)CSSC[C@H](NC(=O)[C@H](Cc4ccc(O)cc4)NC(=O)CNC(=O)CNC(=O)[C@H](CCCCN)NC(=O)[C@H](Cc4ccc(O)cc4)NC(=O)CNC(=O)[C@H](CCCNC(=N)N)NC1=O)C(=O)N[C@@H](CCCCN)C(=O)NCC(=O)N[C@@H]([C@@H](C)O)C(=O)N[C@@H](Cc1ccccc1)C(=O)N[C@@H](CCCCN)C(=O)N[C@@H](CCC(N)=O)C(=O)N[C@@H]([C@@H](C)O)C(=O)N3)C(=O)N[C@@H](Cc1c[nH]cn1)C(=O)N[C@@H](CO)C(=O)N[C@@H](Cc1c[nH]cn1)C(=O)N2 [OPTX-1] (H-GYGCPFNQYQCHSHCSGIRGYKGGYCKGTFKQTCKCY-OH; disulfide 4-26, 11-34, 15-36 (inferred); N-terminus and C-terminus assumed)
mode of inhibition of pS273R protease: competitive inhibitor of the pS273R protease
